The results in this text go back to ChEMBL document CHEMBL1142886, “Substrate specificity analysis and inhibitor design of homoisocitrate dehydrogenase” (Bioorg Med Chem, 2007).

Experiment [1] deals with Deinococcus radiodurans. The experiment in a line: Activity of Deinococcus radiodurans homoisocitrate dehydrogenase.
The subject of experiment [2] is Deinococcus radiodurans. Nature of the experiment: Ratio of kcat/km of Deinococcus radiodurans homoisocitrate dehydrogenase.
The test system of experiment [3] is Deinococcus radiodurans. The experiment in a line: Activity of Deinococcus radiodurans homoisocitrate dehydrogenase above 10 mM.
Experiment [4] concerns the target Homoisocitrate dehydrogenase, mitochondrial (Saccharomyces cerevisiae S288c) (UniProt P40495). Nature of the experiment: Activity of recombinant Saccharomyces cerevisiae homoisocitrate dehydrogenase expressed in Escherichia coli Rosetta cells above 10 mM.

Activity calls are given as the source filed them. No cut-off for these calls is given here.

Sequence of Homoisocitrate dehydrogenase, mitochondrial (Saccharomyces cerevisiae S288c) (P40495 whole entry): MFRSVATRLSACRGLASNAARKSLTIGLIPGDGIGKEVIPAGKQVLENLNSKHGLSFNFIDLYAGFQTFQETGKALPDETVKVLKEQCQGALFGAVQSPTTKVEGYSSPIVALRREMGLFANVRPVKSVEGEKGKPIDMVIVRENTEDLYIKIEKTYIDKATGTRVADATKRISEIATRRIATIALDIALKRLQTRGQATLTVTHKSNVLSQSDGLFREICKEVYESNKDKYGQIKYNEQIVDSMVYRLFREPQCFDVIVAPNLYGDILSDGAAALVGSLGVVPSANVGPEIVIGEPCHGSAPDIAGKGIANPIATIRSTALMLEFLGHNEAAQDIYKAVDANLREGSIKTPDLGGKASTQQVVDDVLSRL

On to `C=CCCC[C@H](C(=O)O)[C@@H](O)C(=O)O`, for which, in the experiment on Deinococcus radiodurans [1], the Km was 2700 µM and the kcat was 3 s⁻¹. Moreover, the specificity constant (kcat/Km) in the experiment on Deinococcus radiodurans [2] came out at 1100 M⁻¹ s⁻¹.
For the compound `O=C(O)[C@H](O)[C@@H](C(=O)O)c1ccccc1`, the outcome (in the experiment on Deinococcus radiodurans [3]; in experiment [4]) was inactive.
Take `O=C(O)CCC[C@H](C(=O)O)[C@@H](O)C(=O)O`: in the experiment on Deinococcus radiodurans [1], the Km came out at 200 µM and the kcat worked out at 40 s⁻¹. Also, in the experiment on Deinococcus radiodurans [2], the kcat/Km was found to be 200000 M⁻¹ s⁻¹.
For `CC(C)[C@H](C(=O)O)[C@@H](O)C(=O)O`, in experiment [4], the outcome was inactive.
Regarding `O=C(O)CCCC[C@H](C(=O)O)[C@@H](O)C(=O)O`, in the experiment on Deinococcus radiodurans [1], the Km turned out to be 140 µM and the kcat stood at 40 s⁻¹. The kcat/Km in the experiment on Deinococcus radiodurans [2] was determined as 290000 M⁻¹ s⁻¹.
On the same counts, the results for `C=CC[C@H](C(=O)O)[C@@H](O)C(=O)O` are 2800 µM, 37 s⁻¹ and 13000 M⁻¹ s⁻¹.
Regarding `C=C[C@H](C(=O)O)[C@@H](O)C(=O)O`, in the experiment on Deinococcus radiodurans [1], the Km stood at 83 µM and the kcat stood at 0.77 s⁻¹. The kcat/Km with Deinococcus radiodurans [2] was determined as 9300 M⁻¹ s⁻¹.
For the compound `O=C(O)[C@@H](CCCO)[C@@H](O)C(=O)O`, in the experiment with Deinococcus radiodurans [1], the Km was 510 µM and the kcat was 29 s⁻¹. For the same compound, in the experiment with Deinococcus radiodurans [2], the specificity constant (kcat/Km) is 200000 M⁻¹ s⁻¹.
On to `O=C(O)C[C@H](C(=O)O)[C@@H](O)C(=O)O`, for which the result in experiment [4] was inactive.
With `CCCCC[C@H](C(=O)O)[C@@H](O)C(=O)O`, in the experiment on Deinococcus radiodurans [1], the Michaelis constant (Km) was determined as 3200 µM and the kcat is 3.7 s⁻¹. Also, the kcat/Km with Deinococcus radiodurans [2] turned out to be 1200 M⁻¹ s⁻¹.
In the case of `O=C(O)C[C@@H](O)C(=O)O`, the result (in the experiment with Deinococcus radiodurans [3]; in experiment [4]) was inactive.
With `C[C@H](C(=O)O)[C@@H](O)C(=O)O`, in the experiment on Deinococcus radiodurans [1], the Km turned out to be 3600 µM and the kcat amounted to 19 s⁻¹. For the same compound, the specificity constant (kcat/Km) in the experiment with Deinococcus radiodurans [2] is 5300 M⁻¹ s⁻¹.
On the same counts, the results for `CCC[C@H](C(=O)O)[C@@H](O)C(=O)O` are 780 µM, 53 s⁻¹ and 68000 M⁻¹ s⁻¹.
As to `CC[C@H](C(=O)O)[C@@H](O)C(=O)O`, in the experiment with Deinococcus radiodurans [1], the Km was 1000 µM and the kcat is 43 s⁻¹. Also, in the experiment with Deinococcus radiodurans [2], the kcat/Km came to 430000 M⁻¹ s⁻¹.
`O=C(O)[C@@H](CCO)[C@@H](O)C(=O)O`: in the experiment with Deinococcus radiodurans [1], the Michaelis constant (Km) was determined as 590 µM and the kcat was determined as 25 s⁻¹. For the same compound, the specificity constant (kcat/Km) in the experiment with Deinococcus radiodurans [2] stood at 42000 M⁻¹ s⁻¹.
On the same counts, the results for `O=C(O)[C@@H](CCCCO)[C@@H](O)C(=O)O` are 470 µM, 28 s⁻¹ and 60000 M⁻¹ s⁻¹.
For `O=C(O)[C@@H](O)[C@@H](O)C(=O)O`, the outcome (in the experiment on Deinococcus radiodurans [3]; in experiment [4]) was inactive.
For `NCCC[C@H](C(=O)O)[C@@H](O)C(=O)O`, the result (with Deinococcus radiodurans [3]; in experiment [4]) was inactive.
